Test results from patent US20220000832A1 (priority 2019, published 2022).
Read-outs that look alike come from different tables or passages of the source.

Tests used:
[1] = test system: Melb-a (melanoblast) cells; assay: cells; format: cell-based
[2] = test system: melb-a cells (melanoblasts); assay: cells; format: cell-based; settings: for fold induction at 1 µM / fold induction at 10 µM / fold induction at 100 µM: read-out: Increase of cell migration rate compared to negative control
[3] = test system: Melb-a (melanoblast) cells
[4] = 96 h, read-out: Melanin content compared to negative control (%)
[5] = 24 h, read-out: Cell migration rate (%)

| Compound | fold induction at 10 µM ([2]; 24 h) | activity at 10 µM [1, 4] | activity at 10 µM [2, 5] | other results |
| --- | --- | --- | --- | --- |
| O=Cc1ccc(CO)o1 [Example 1, 5-(hydroxymethyl)furan-2-carbaldehyde] | 2.7 |  |  | Melanin content compared to negative control (in words) [1]: gradually increased; Melanin content (in words) ([1]; 1000 μM): rather reduced; activity at 1000 µM [1, 4]: 149 ± 17.4%; Cell migration rate (in words) [2]: decreased; Cell migration rate compared to negative control (in words) [2]: gradually increased; fold induction at 1 µM ([2]; 24 h): 2; fold induction at 100 µM ([2]; 24 h, 100 μM): ~4; activity at 25 µM [2, 5]: 263 ± 12.7%; activity at 50 µM [2, 5]: 309 ± 15.5%; activity at 1000 µM [2, 5]: 253 ± 13.4%; Cell viability ([3]; mouse): ≥ 105% |
| O=Cc1ccc(COCc2ccccc2)o1 [Example 2, 5-((benzyloxy)methyl)furan-2-carbaldehyde] |  | 82.4 ± 4.25% | 114 ± 18.9% |  |
| C=CCOCc1ccc(C=O)o1 [Example 3, 5-((allyloxy)methyl)furan-2-carbaldehyde] |  | 95.2 ± 7.54% | 134 ± 11.7% |  |
| O=Cc1ccc(C(=O)NCc2ccccc2)o1 [Example 4, N-benzyl-5-formylfuran-2-carboxamide] |  | 97.4 ± 4.47% | 115 ± 19.5% |  |
| CCCNC(=O)c1ccc(C=O)o1 [Example 5, 5-formyl-N-propylfuran-2-carboxamide] | > 2 | 94.3 ± 1.51% | 229 ± 11.6% |  |
| CNC(=O)c1ccc(C=O)o1 [Example 6, 5-formyl-N-methylfuran-2-carboxamide] |  | 95.9 ± 2.87% | 139 ± 17.5% |  |
| O=Cc1ccc(C(=O)OCc2ccccc2)o1 [Example 7, Benzyl 5-formylfuran-2-carboxylate] | > 2 | 134 ± 2.32% | 202 ± 61.9% |  |
| C=CCOC(=O)c1ccc(C=O)o1 [Example 8, allyl 5-formylfuran-2-carboxylate] |  | 122 ± 5.15% | 178 ± 19.8% |  |
| COC(=O)c1ccc(C(OC)OC)o1 [Example 9, methyl 5-(dimethoxymethyl)furan-2-carboxylate] | > 2 | 131 ± 2.03% |  | Melanin content compared to negative control (in words) [1]: gradually increased; activity at 1 µM [1, 4]: 128 ± 7.18%; activity at 100 µM [1, 4]: 142 ± 5.43%; Cell migration rate compared to negative control (in words) [2]: gradually increased; fold induction at 1 µM ([2]; 24 h): ~1.9; fold induction at 100 µM ([2]; 24 h, 100 μM): ~3; activity at 1 µM [2, 5]: 198 ± 6.81%; activity at 100 µM [2, 5]: 303 ± 18.7%; Cell viability ([3]; mouse): ≥ 99% |
| COC(=O)c1ccc(C=O)o1 [Example 10, methyl 5-formylfuran-2-carboxylate] | > 2 |  |  | Melanin content compared to negative control (in words) [1]: gradually increased; Melanin content (in words) ([1]; 100 μM): somewhat reduced; activity at 1 µM [1, 4]: 136 ± 5.19%; activity at 100 µM [1, 4]: 159 ± 1.77%; Cell migration rate compared to negative control (in words) [2]: gradually increased; fold induction at 1 µM ([2]; 24 h): ~1.9; fold induction at 100 µM ([2]; 24 h, 100 μM): ~2.7; activity at 1 µM [2, 5]: 189 ± 11.4%; activity at 100 µM [2, 5]: 283 ± 7.03%; Cell viability ([3]; mouse): ≥ 99% |
| CCOC(=O)c1ccc(CO)o1 [Example 11, ethyl 5-(hydroxymethyl)furan-2-carboxylate] |  | 104 ± 4.63% | 112 ± 13.9% |  |
| OCc1ccc(CO)o1 [Example 12, Furan-2,5-diyldimethanol] |  | 139 ± 1.6% | 173 ± 29.9% |  |
| COC(=O)c1ccc(CO)o1 [Example 13, methyl 5-(hydroxymethyl)furan-2-carboxylate] |  | 145 ± 5.9% | 161 ± 29.4% |  |
| O=C(O)c1ccc(CO)o1 [Example 14, 5-(hydroxymethyl)furan-2-carboxylic Acid] | > 2 | 158.4 ± 0.75% | 264 ± 7.81% |  |
| CC(O)c1ccc(COC2CCCCO2)o1 (centres unmarked) [Example 15, 1-(5-(((tetrahydro-2H-pyran-2-yl)oxy)methyl)furan-2-yl)ethanol] |  | 144 ± 4.59% | 197 ± 33.8% |  |
| CC(O)c1ccc(CO)o1 (centres unmarked) [Example 16, 1-(5-(hydroxymethyl)furan-2-yl)ethanol] | > 2 | 139 ± 19.9% | 215 ± 13.9% |  |
| O=Cc1ccc(C=O)o1 [Example 17, Furan-2,5-dicarbaldehyde] |  | 95.3 ± 6.49% | 118 ± 21.9% | Melanin content compared to negative control (in words) ([1]; 10 μM): lowered; Cell viability (in words) [3]: very low; Cell viability (%) ([3]; mouse): 23.08 ± 5.95%; Cell viability (in words) ([3]; mouse): low compared to when the compound of Example 1 was treated |
| CC(O)c1ccc(C=O)o1 (centres unmarked) [Example 18, 5-(1-hydroxyethyl)furan-2-carbaldehyde] | > 2 |  |  | Melanin content compared to negative control (in words) [1]: slightly increased; Melanin content (in words) ([1]; 100 μM): decreased; activity at 1 µM [1, 4]: 125 ± 3.04%; activity at 100 µM [1, 4]: 128 ± 4.15%; Cell migration rate compared to negative control (in words) [2]: gradually increased; Cell migration rate (in words) ([2]; 100 μM): rather decreased; fold induction at 1 µM ([2]; 24 h): ~1.7; activity at 1 µM [2, 5]: 177 ± 25.5%; activity at 100 µM [2, 5]: 167 ± 20.3% |
| CC(=O)OC(C)c1ccc(C=O)o1 (centres unmarked) [Example 19, 1-(5-formylfuran-2-yl)ethyl Acetate] | > 2 | 116 ± 3.15% | 230 ± 25.1% |  |
| CCC(O)c1ccc(C=O)o1 (centres unmarked) [Example 20, 5-(1-hydroxypropyl)furan-2-carbaldehyde] | > 2 | 112 ± 1.5% | 261 ± 16.8% |  |
| CCC(OC(C)=O)c1ccc(C=O)o1 (centres unmarked) [Example 21, 1-(5-formylfuran-2-yl)propyl Acetate] | > 2 | 115 ± 2.96% | 260 ± 16.5% |  |
